Measured values: article PMC11434613, “The Remarkable and Selective In Vitro Cytotoxicity of Synthesized Bola-Amphiphilic Nanovesicles on Etoposide-Sensitive and -Resistant Neuroblastoma Cells” (Nanomaterials, 2024)

Assays:
HTLA-ER cells [1] = assay: Cell viability assay (CellTiter 96 AQueous One Solution) on etoposide-resistant HTLA-ER NB cells; format: cell-based, human; conditions: average IC50 on three human normal oral cell lines (ref 69) / IC50 on HTLA-ER after 24 h (ref 58)
Excerpt: HTLA-230 human stage-IV NB cells were kindly provided by Dr. L. Raffaghello (G. Gaslini Institute, Genoa, Italy). The HTLA-ER cells were selected by treating HTLA-230 parental cells for six months with increasing concentrations of etoposide, as previously reported. Both cell populations were maintained in RPMI 1640 medium (Euroclone Spa, Pavia, Italy) supplemented with 10% fetal bovine serum (FBS, Euroclone Spa, Pavia, Italy), 1% L-glutamine (Euroclone Spa, Pavia, Italy), and 1% Penicillin/Streptomicin (Euroclone Spa, Pavia, Italy) and grown in standard conditions (37 °C humidified incubator with 5% CO2).
To determine the cytotoxic effects of BPPB, in vitro time- and dose-dependent experiments were carried out. Cells were first treated for 24, 48, and 72 h, with increasing concentrations (0.5–50 µM) of the compound. In a subsequent series of the experiments, cells were treated for 24, 48, and 72 h with increasing concentration of BPPB in the range of 0.1–2 µM. […] Cell cultures were carefully monitored before and during the experiments to ensure optimal cell density.
Cell viability was determined by using the CellTiter 96® AQueous One Solution Cell Proliferation Assay (Promega, Madison, WI, USA), as previously described. Briefly, cells (10,000 cells/well) were seeded into 96-well plates (Corning Incorporated, Corning, NY, USA) and then treated. Next, cells were incubated with 20 µL of CellTiter, and the absorbance at 490 nm was recorded using a microplate reader (EL-808, BIO-TEK Instruments Inc., Winooski, VT, USA). IC50 was evaluated by GraphPad Prism 5.4.2 Software (GraphPad Software, Boston, MA, USA).
Results are expressed as the means ± S.D. of at least four independent experiments in which six different wells were analyzed every time for each experimental condition. The statistical significance of differences was determined by two-way analysis of variances (ANOVA) followed by Tukey’s multicomparison test using GraphPad Prism 8.0 (GraphPad Software v8.0, San Diego, CA, USA); p < 0.05 was considered statistically significant. Asterisks or other indicators (see Figures captions) indicate the following p-value ranges: p > 0.05 no symbols, * = p < 0.05, ** = p < 0.01, *** = p < 0.001, **** = p < 0.0001.

[2] = system: HTLA-230 human stage-IV NB cells; conditions: 100 µM for 24 h; cited from earlier work
HTLA-ER cells [3] = conditions: cited from earlier work

COc1cc([C@@H]2c3cc4c(cc3[C@@H](O[C@@H]3O[C@@H]5CO[C@@H](C)O[C@H]5[C@H](O)[C@H]3O)[C@H]3COC(=O)[C@H]23)OCO4)cc(OC)c1O [ETO, etoposide]
Etoposide SI for HTLA-ER NB cells (HTLA-ER cells [1]): 0.32
Cell viability HTLA-230 [2]: ~70%
Cell viability HTLA-ER (HTLA-ER cells [3]; 100 µM for 24 h): over 80%
IC50 (HTLA-ER cells [3]; 24 h of exposure, read-out: Extrapolated IC50 on HTLA-ER): 592 µM
